# According to patent US9758529B2, “Fused dihydro-4H-pyrazolo[5,1-C][1,4]oxazinyl compounds and analogs for treating CNS disorders” (Sunovion Pharmaceuticals Inc., priority 2015, dated 2017):
# Where a name gives a salt, the structure may show the parent alone.
# System: mice
# Test: Neuropharmacological Assay (SmartCube)
# Type: in vivo
# Conditions: i.p. 15 min before behavioral test; 3 doses, most efficacious dose(s) presented
Structure (SMILES),AD: ADHD (probability of class match),AG: analgesic (probability of class match),AX: anxiolytic (probability of class match),CE: cognitive enhancer (probability of class match),DP: anti-depressant (probability of class match),HA: hallucinogen (probability of class match),MS: mood stabilizer (probability of class match),PS: anti-psychotic (probability of class match),SD: sedative hypnotic (probability of class match),UN: uncharacterized CNS activity (probability of class match)
"CN(C)CC1OCCn2nc3cc(F)ccc3c21.Cl (stereo not shown) [Compound 11, 1-(8-fluoro-3,4-dihydro-1H-[1,4]oxazino[4,3-b]indazol-1-yl)-N,N-dimethylmethanaminium]",+ (LOQ≦ + <5%),+ (LOQ≦ + <5%),+ (LOQ≦ + <5%),+ (LOQ≦ + <5%),+++ (25%≦ +++ <50%),+ (LOQ≦ + <5%),+ (LOQ≦ + <5%),++ (5%≦ ++ <25%),++ (5%≦ ++ <25%),+ (LOQ≦ + <5%)
"CN(C)CC1OCCCn2nc3ccccc3c21.Cl (stereo not shown) [Compound 52, 1-(4,5-dihydro-1H,3H-[1,4]oxazepino[4,3-b]indazol-1-yl)-N,N-dimethylmethanaminium chloride]",+ (LOQ≦ + <5%),+ (LOQ≦ + <5%),++ (5%≦ ++ <25%),+ (LOQ≦ + <5%),++ (5%≦ ++ <25%),+ (LOQ≦ + <5%),+ (LOQ≦ + <5%),+ (LOQ≦ + <5%),+ (LOQ≦ + <5%),++ (5%≦ ++ <25%)
"Cl.c1ccc2c3n(nc2c1)CCOC3[C@H]1CCCNC1 (stereo partly drawn) [Compound 38, (3S)-3-(3,4-dihydro-1H-[1,4]oxazino[4,3-b]indazol-1-yl)piperidin-1-ium]",+ (LOQ≦ + <5%),++ (5%≦ ++ <25%),++ (5%≦ ++ <25%),+ (LOQ≦ + <5%),+ (LOQ≦ + <5%),+ (LOQ≦ + <5%),++ (5%≦ ++ <25%),++ (5%≦ ++ <25%),+ (LOQ≦ + <5%),+ (LOQ≦ + <5%)
"CNCC1OCCn2nc3ccccc3c21 (stereo not shown) [Compound I-4, (3,4-dihydro-1H-[1,4]oxazino[4,3-b]indazol-1-yl)-N-methylmethanamine]",++ (5%≦ ++ <25%),+ (LOQ≦ + <5%),+++ (25%≦ +++ <50%),+ (LOQ≦ + <5%),++++ (50%≦ ++++),++ (5%≦ ++ <25%),+ (LOQ≦ + <5%),+ (LOQ≦ + <5%),++ (5%≦ ++ <25%),+ (LOQ≦ + <5%)
"CNCC1OCCn2nc3ccc(Cl)cc3c21.Cl (stereo not shown) [Compound 5, 1-(9-chloro-3,4-dihydro-1H-[1,4]oxazino[4,3-b]indazol-1-yl)-N-methylmethanaminium chloride]",+ (LOQ≦ + <5%),++ (5%≦ ++ <25%),+ (LOQ≦ + <5%),+ (LOQ≦ + <5%),++ (5%≦ ++ <25%),+ (LOQ≦ + <5%),+ (LOQ≦ + <5%),+ (LOQ≦ + <5%),+ (LOQ≦ + <5%),+ (LOQ≦ + <5%)
"CN1CCC[C@H]1C1OCCn2nc3ccccc3c21 (stereo partly drawn) [Compound 14, 1-((S)-1-methylpyrrolidin-2-yl)-3,4-dihydro-1H-[1,4]oxazino[4,3-b]indazole hydrochloride]",+ (LOQ≦ + <5%),+ (LOQ≦ + <5%),+++ (25%≦ +++ <50%),++ (5%≦ ++ <25%),++ (5%≦ ++ <25%),+ (LOQ≦ + <5%),+ (LOQ≦ + <5%),++ (5%≦ ++ <25%),+ (LOQ≦ + <5%),+ (LOQ≦ + <5%)
"CN(CC1OCCCn2nc3ccccc3c21)C1CCC1.Cl (stereo not shown) [Compound 55, N-((4,5-dihydro-1H,3H-[1,4]oxazepino[4,3-b]indazol-1-yl)methyl)-N-methylcyclobutanaminium chloride]",+ (LOQ≦ + <5%),+ (LOQ≦ + <5%),++ (5%≦ ++ <25%),+ (LOQ≦ + <5%),+ (LOQ≦ + <5%),+ (LOQ≦ + <5%),+ (LOQ≦ + <5%),+ (LOQ≦ + <5%),+ (LOQ≦ + <5%),+++ (25%≦ +++ <50%)
"Cl.NCC1OCCn2nc3ccc(F)cc3c21 (stereo not shown) [Compound 9, (9-fluoro-3,4-dihydro-1H-[1,4]oxazino[4,3-b]indazol-1-yl)methanaminium chloride]",++ (5%≦ ++ <25%),++ (5%≦ ++ <25%),+ (LOQ≦ + <5%),++ (5%≦ ++ <25%),++ (5%≦ ++ <25%),+ (LOQ≦ + <5%),+ (LOQ≦ + <5%),+ (LOQ≦ + <5%),+ (LOQ≦ + <5%),+++ (25%≦ +++ <50%)

# Same assay, conditions: i.p. 15 min before behavioral test; 3 doses, most efficacious dose(s) presented
row,Structure (SMILES),XG: anxiogenic (probability of class match)
1,"CN(C)CC1OCCn2nc3cc(F)ccc3c21.Cl (stereo not shown) [Compound 11, 1-(8-fluoro-3,4-dihydro-1H-[1,4]oxazino[4,3-b]indazol-1-yl)-N,N-dimethylmethanaminium]",+ (LOQ≦ + <5%)
2,"CN(C)CC1OCCCn2nc3ccccc3c21.Cl (stereo not shown) [Compound 52, 1-(4,5-dihydro-1H,3H-[1,4]oxazepino[4,3-b]indazol-1-yl)-N,N-dimethylmethanaminium chloride]",+ (LOQ≦ + <5%)
3,"Cl.c1ccc2c3n(nc2c1)CCOC3[C@H]1CCCNC1 (stereo partly drawn) [Compound 38, (3S)-3-(3,4-dihydro-1H-[1,4]oxazino[4,3-b]indazol-1-yl)piperidin-1-ium]",+ (LOQ≦ + <5%)
4,"CNCC1OCCn2nc3ccccc3c21 (stereo not shown) [Compound I-4, (3,4-dihydro-1H-[1,4]oxazino[4,3-b]indazol-1-yl)-N-methylmethanamine]",+ (LOQ≦ + <5%)
5,"CNCC1OCCn2nc3ccc(Cl)cc3c21.Cl (stereo not shown) [Compound 5, 1-(9-chloro-3,4-dihydro-1H-[1,4]oxazino[4,3-b]indazol-1-yl)-N-methylmethanaminium chloride]",+ (LOQ≦ + <5%)
6,"CN1CCC[C@H]1C1OCCn2nc3ccccc3c21 (stereo partly drawn) [Compound 14, 1-((S)-1-methylpyrrolidin-2-yl)-3,4-dihydro-1H-[1,4]oxazino[4,3-b]indazole hydrochloride]",+ (LOQ≦ + <5%)
7,"CN(CC1OCCCn2nc3ccccc3c21)C1CCC1.Cl (stereo not shown) [Compound 55, N-((4,5-dihydro-1H,3H-[1,4]oxazepino[4,3-b]indazol-1-yl)methyl)-N-methylcyclobutanaminium chloride]",+ (LOQ≦ + <5%)
8,"Cl.NCC1OCCn2nc3ccc(F)cc3c21 (stereo not shown) [Compound 9, (9-fluoro-3,4-dihydro-1H-[1,4]oxazino[4,3-b]indazol-1-yl)methanaminium chloride]",+ (LOQ≦ + <5%)
